Data from paper PMC11822664, “First‐In‐Human Dose Finding Study of Venadaparib (IDX‐1197), a Potent and Selective PARP Inhibitor, in Patients With Advanced Solid Tumors” (Cancer Medicine, 2025).

Test: Plasma pharmacokinetics, noncompartmental analysis (Day 1 and Day 14)
Format: in vivo, human
Conditions: for AUCinf / AUClast / Cmax / T1/2β / Vz / AUCinf,ss / AUClast,ss / Cmax,ss / Vd,ss: mean±SD; for Tmax / Tmax,ss: median (min-max)
Protocol: Pharmacokinetic and pharmacodynamic studies were performed during the first cycle of treatment. Plasma samples were analyzed for venadaparib concentration using liquid‐liquid extraction followed by high‐performance liquid chromatography, with detection by mass spectrometry. The plasma concentration–time data were analyzed using noncompartmental analysis (WinNonLin, version 8.0, SAS version 9.4 and R version 3.6.3) to derive pharmacokinetic parameters after the first dose (single‐dose parameters) and after the dose on Day 14 (multiple‐dose parameters). Pharmacodynamic studies were performed by evaluating Poly (ADP‐ribose) in peripheral blood mononuclear cells and quantifying tumor‐tissue lysates using the HT PARP in vivo Pharmacodynamic ELISA Kit II (R&D Systems, 4520‐096‐K).

[1] = day 1, Cohort 1: 2 mg once daily, 2 weeks on 1 week off, n=3
[2] = day 1, Cohort 2: 5 mg once daily, 2 weeks on 1 week off, n=3
[3] = day 1, Cohort 3: 10 mg once daily, 2 weeks on 1 week off, n=3
[4] = day 1, Cohort 4: 20 mg once daily, 2 weeks on 1 week off, n=3
[5] = day 1, Cohort 5: 20 mg once daily continuously, n=3
[6] = day 1, Cohort 6: 40 mg once daily continuously, n=3
[7] = day 1, Cohort 7: 80 mg once daily continuously, n=3
[8] = day 1, Cohort 8: 120 mg once daily continuously, n=3
[9] = day 1, Cohort 9: 160 mg once daily continuously, n=4
[10] = day 1, Cohort 10: 240 mg once daily continuously, n=3
[11] = day 14, Cohort 1: 2 mg once daily, 2 weeks on 1 week off, n=3
[12] = day 14, Cohort 2: 5 mg once daily, 2 weeks on 1 week off, n=3
[13] = day 14, Cohort 3: 10 mg once daily, 2 weeks on 1 week off, n=3
[14] = day 14, Cohort 4: 20 mg once daily, 2 weeks on 1 week off, n=3
[15] = day 14, Cohort 5: 20 mg once daily continuously, n=3
[16] = day 14, Cohort 6: 40 mg once daily continuously, n=3
[17] = day 14, Cohort 7: 80 mg once daily continuously, n=3
[18] = day 14, Cohort 8: 120 mg once daily continuously, n=3
[19] = day 14, Cohort 9: 160 mg once daily continuously, n=4
[20] = day 14, Cohort 10: 240 mg once daily continuously, n=3

## O=C(c1cc(Cc2n[nH]c(=O)c3ccccc23)ccc1F)N1CC(CNC2CC2)C1 [venadaparib, Venadaparib]
After 14 days of daily administration
  average increase in drug exposure: 99%
After initiation of daily dosing
  Time to steady state: approximately 2 weeks
[1]
  AUCinf: 780.62±401.58 (51.4%) [318.42-043.92] h*ug/L
  AUClast: 593.00±274.64 (46.3%) [291.48-828.86] h*ug/L
  Cmax: 84.50±54.00 (63.9%) [33.40-141.00] ng/mL
  T1/2β: 11.64±4.54 (39.0%) [6.72-15.66] h
  Vz: 47.20±13.15 (27.8%) [34.62-60.85] L
  Tmax: 1.92 (1.03-1.97) h
[2]
  AUCinf: 1827.86±1666.87 (84.7%) [33.40-141.00] h*ug/L
  AUClast: 1340.46±1006.85 (84.7%) [33.40-141.00] h*ug/L
  Cmax: 180.00±48.57 (27.0%) [133.00-230.00] ng/mL
  T1/2β: 10.52±3.54 (33.7%) [6.97-14.06] h
  Vz: 57.08±26.96 (84.7%) [33.40-141.00] L
  Tmax: 3.00 (0.55-4.00) h
[3]
  AUCinf: 3649.06±4836.80 (132.5%) [144.88-9167.47] h*ug/L
  AUClast: 2519.97±3026.42 (120.1%) [127.22-5922.09] h*ug/L
  Cmax: 204.17±173.02 (84.7%) [33.40-141.00] ng/mL
  T1/2β: 9.94±3.14 (31.6%) [7.23-13.39] h
  Vz: 333.81±505.10 (151.3%) [21.07-916.53] L
  Tmax: 3.00 (2.00-8.02) h
[4]
  AUCinf: 3039.02±674.82 (22.2%) [2368.04-3717.62] h*ug/L
  AUClast: 2754.42±727.50 (26.4%) [1991.23-3440.00] h*ug/L
  Cmax: 380.00±146.81 (38.6%) [228.00-521.00] ng/mL
  T1/2β: 7.91±2.11 (26.7%) [6.25-10.28] h
  Vz: 80.18±39.12 (48.8%) [55.73-125.29] L
  Tmax: 3.00 (2.08-4.00) h
[5]
  AUCinf: 12875.06±5816.24 (45.5%) [7832.01-19189.58] h*ug/L
  AUClast: 10232.09±3651.74 (35.7%) [7292.97-14320.11] h*ug/L
  Cmax: 1128.00±443.52 (39.3%) [862.00-1640.00] ng/mL
  T1/2β: 9.98±3.76 (37.7%) [5.82-13.13] h
  Vz: 23.05±4.34 (18.8%) [19.75-27.97] L
  Tmax: 2.93 (0.50-3.00) h
[6]
  AUCinf: 15825.90±13925.93 (88.0%) [7229.41-31893.03] h*ug/L
  AUClast: 14369.29±12181.96 (84.8%) [6801.11-28421.88] h*ug/L
  Cmax: 2043.33±1547.82 (75.7%) [1110.00-3830.00] ng/mL
  T1/2β: 6.87±0.36 (5.3%) [6.64-7.29] h
  Vz: 37.48±21.36 (57.0%) [13.19-53.37] L
  Tmax: 2.00 (2.00-3.00) h
[7]
  AUCinf: 31699.75±12751.32 (40.2%) [17104.01-40676.73] h*ug/L
  AUClast: 27733.70±10788.09 (38.9%) [15336.37-34987.13] h*ug/L
  Cmax: 3643.33±582.27 (16.0%) [2980.00-4070.00] ng/mL
  T1/2β: 8.29±0.47 (5.7%) [7.81-8.75] h
  Vz: 35.61±20.31 (57.0%) [23.61-59.06] L
  Tmax: 1.03 (1.00-3.00) h
[8]
  AUCinf: 28572.20±24412.45 (85.4%) [12537.00-56667.70] h*ug/L
  AUClast: 23020.92±16230.34 (70.5%) [12129.81-41674.88] h*ug/L
  Cmax: 2923.33±1179.25 (40.3%) [2030.00-4260.00] ng/mL
  T1/2β: 8.56±4.44 (51.9%) [4.97-13.53] h
  Vz: 61.75±17.99 (29.1%) [41.34-75.31] L
  Tmax: 2.00 (1.95-2.07) h
[9]
  AUCinf: 48298.24±7488.56 (15.5%) [39493.27-55858.21] h*ug/L
  AUClast: 42174.71±5663.76 (13.4%) [35508.61-48321.59] h*ug/L
  Cmax: 5295.00±628.68 (11.9%) [4820.00-6220.00] ng/mL
  T1/2β: 8.15±1.31 (16.1%) [6.18-8.88] h
  Vz: 39.02±4.02 (10.3%) [36.11-44.88] L
  Tmax: 2.00 (1.00-3.00) h
[10]
  AUCinf: 37514.17±11745.33 (31.3%) [23968.05-44861.59] h*ug/L
  AUClast: 35064.82±10936.96 (31.2%) [22440.89-41684.26] h*ug/L
  Cmax: 4243.33±1097.38 (25.9%) [2980.00-4960.00] ng/mL
  T1/2β: 5.86±0.27 (4.5%) [5.63-6.15] h
  Vz: 58.25±20.01 (34.4%) [45.93-81.34] L
  Tmax: 2.03 (1.95-3.87) h
[11]
  AUCinf,ss: 1736.03±1605.80 (92.5%) [457.71-3538.38] h*ug/L
  AUClast,ss: 1364.99±1236.83 (90.6%) [418.50-2764.45] h*ug/L
  Cmax,ss: 164.83±158.82 (96.4%) [55.40-347.00] ng/mL
  T1/2β: 10.12±3.11 (30.8%) [6.53-12.16] h
  Vd,ss: 26.55±15.98 (60.2%) [9.51-41.19] L
  Tmax,ss: 1.95 (0.50-3.00) h
[12]
  AUCinf,ss: 3471.41±2661.23 (76.7%) [854.73-6175.06] h*ug/L
  AUClast,ss: 2104.75±1410.01 (67.0%) [709.76-3529.30] h*ug/L
  Cmax,ss: 274.27±162.91 (59.4%) [90.80-402.00] ng/mL
  T1/2β: 17.56±7.23 (41.1%) [9.22-21.87] h
  Vd,ss: 49.88±26.44 (53.0%) [25.23-77.80] L
  Tmax,ss: 2.92 (2.00-3.00) h
[13]
  AUCinf,ss: 7870.90±9667.28 (122.8%) [1452.44-18989.55] h*ug/L
  AUClast,ss: 4925.17±5146.81 (104.5%) [1287.46-10814.03] h*ug/L
  Cmax,ss: 484.00±194.58 (40.2%) [269.00-648.00] ng/mL
  T1/2β: 12.01±4.70 (39.1%) [8.11-17.22] h
  Vd,ss: 47.43±33.75 (71.2%) [13.09-80.56] L
  Tmax,ss: 1.00 (1.00-6.00) h
[14]
  AUCinf,ss: 4133.27±1804.89 (43.7%) [2714.79-6164.85] h*ug/L
  AUClast,ss: 3664.78±1671.01 (45.6%) [2268.75-5516.31] h*ug/L
  Cmax,ss: 462.00±198.65 (43.0%) [240.00-623.00] ng/mL
  T1/2β: 8.39±1.33 (15.8%) [7.43-9.91] h
  Vd,ss: 68.11±35.43 (52.0%) [34.78-105.328 L
  Tmax,ss: 3.00 (2.08-4.00) h
[15]
  AUCinf,ss: 19641.86±12129.06 (61.8%) [9377.20-33025.96] h*ug/L
  AUClast,ss: 14356.35±8586.68 (59.8%) [7554.53-24004.86] h*ug/L
  Cmax,ss: 1372.33±691.19 (50.4%) [867.00-2160.00] ng/mL
  T1/2β: 12.95±2.11 (16.3%) [10.89-15.11] h
  Vd,ss: 23.71±11.37 (48.0%) [11.24-33.51] L
  Tmax,ss: 3.00 (2.00-3.00) h
[16]
  AUCinf,ss: 20437.84±21732.92 (106.3%) [4443.15-45181.74] h*ug/L
  AUClast,ss: 15650.44±15761.44 (100.7%) [4158.86-33618.37] h*ug/L
  T1/2β: 10.05±3.49 (34.7%) [6.03-12.16] h
  Vd,ss: 50.82±32.01 (63.0%) [15.65-78.27] L
  Tmax,ss: 2.00 (2.00-4.00) h
[17]
  AUCinf,ss: 35855.66±11046.67 (30.8%) [28487.65-48557.05] h*ug/L
  AUClast,ss: 29755.39±5857.45 (19.7%) [25647.39-36462.67] h*ug/L
  T1/2β: 9.16±2.33 (25.4%) [7.54-11.82] h
  Vd,ss: 29.77±1.44 (4.8%) [28.10-30.63] L
  Tmax,ss: 0.50 (0.50-3.00) h
[18]
  AUCinf,ss: 43329.91±51306.71 (118.4%) [9826.55-102396.16] h*ug/L
  AUClast,ss: 34807.85±37475.34 (107.7%) [9506.28-77860.52] h*ug/L
  Cmax,ss: 3650.00±3170.05 (86.9%) [1370.00-7270.00] ng/mL
  T1/2β: 7.15±3.96 (55.4%) [4.86-11.73] h
  Vd,ss: 50.97±33.01 (64.8%) [19.83-85.58] L
  Tmax,ss: 2.08 (2.00-3.00) h
[19]
  AUCinf,ss: 64897.81±24747.53 (38.1%) [35388.15-95105.59] h*ug/L
  AUClast,ss: 54295.35±20528.36 (37.8%) [31921.97-80064.80] h*ug/L
  Cmax,ss: 5860.00±2493.69 (42.6%) [3610.00-8190.00] ng/mL
  T1/2β: 9.44±1.74 (18.4%) [7.58-11.70] h
  Vd,ss: 37.11±12.87 (34.7%) [21.26-49.44] L
  Tmax,ss: 1.50 (1.00-3.02) h
[20]
  AUCinf,ss: 57242.36±29434.12 (51.4%) [25260.40-83194.93] h*ug/L
  AUClast,ss: 51458.84±25578.53 (49.7%) [23517.49-73719.38] h*ug/L
  Cmax,ss: 4650.00±1574.20 (33.9%) [2840.00-5700.00] ng/mL
  T1/2β: 6.66±0.54 (8.1%) [6.04-7.00] h
  Vd,ss: 50.00±28.79 (57.6%) [28.90-82.80] L
  Tmax,ss: 3.05 (1.97-4.00) h
patients
  mean plasma clearance rate: 6.3 L per hour
  mean volume of distribution: 75 L
plasma, biphasic decline
  half-life: approximately 8.7 h
